# How the values were obtained:
# Adrenal [1] = test: Biodistribution in Wistar rat adrenal gland at 300 uCi, iv after 120 mins; format: ADME, organism-based, Adrenal tissue; settings: in vivo, 2 h
# Adrenal [2] = test: Biodistribution in Wistar rat adrenal gland at 300 uCi, iv after 240 mins; format: ADME, organism-based, Adrenal tissue; settings: in vivo, 4 h
# Plasma = test: Metabolic stability in Wistar rat plasma assessed as polar metabolite level at 1 mCi, iv after 10 mins; format: ADME, organism-based; settings: in vivo
# Pancreas [3] = test: Biodistribution in Wistar rat pancreas at 300 uCi, iv after 120 mins; format: ADME, organism-based; settings: in vivo, 2 h
# [4] = Metabolic stability in Wistar rat striatum at 1 mCi, iv after 60 mins; format: ADME, organism-based; settings: read-out: Stability
# Testes [5] = test: Biodistribution in Wistar rat testes at 300 uCi, iv after 120 mins; format: ADME, organism-based, Testis; settings: in vivo, 2 h
# Cerebellum [6] = test: Biodistribution in Wistar rat cerebellum at 300 uCi, iv after 60 mins in presence of citalopram; format: ADME, organism-based; settings: in vivo, 1 h
# Cortex [7] = test: Biodistribution in Wistar rat cortex at 300 uCi, iv after 60 mins in presence of citalopram; format: ADME, organism-based; settings: in vivo, 1 h
# [8] = Biodistribution in Wistar rat brown fat at 300 uCi, iv after 240 mins; format: ADME, organism-based, Brown adipose tissue; settings: in vivo, 4 h
# Hippocampus [9] = test: Biodistribution in Wistar rat hippocampus at 300 uCi, iv after 120 mins; format: ADME, organism-based; settings: in vivo, 2 h
# Pancreas [10] = test: Biodistribution in Wistar rat pancreas at 300 uCi, iv after 60 mins; format: ADME, organism-based; settings: in vivo, 1 h
# Striatum [11] = test: Biodistribution in Wistar rat striatum at 300 uCi, iv after 20 mins; format: ADME, organism-based; settings: in vivo
# Muscle tissue [12] = test: Biodistribution in Wistar rat muscle at 300 uCi, iv after 240 mins; format: ADME, organism-based; settings: in vivo, 4 h
# Pancreas [13] = test: Biodistribution in Wistar rat pancreas at 300 uCi, iv after 5 mins; format: ADME, organism-based; settings: in vivo
# Liver [14] = test: Biodistribution in Wistar rat liver at 300 uCi, iv after 5 mins; format: ADME, organism-based; settings: in vivo
# Blood [15] = test: Biodistribution in Wistar rat blood at 300 uCi, iv after 60 mins; format: ADME, organism-based; settings: in vivo, 1 h
# Spleen = test: Biodistribution in Wistar rat spleen at 300 uCi, iv after 240 mins; format: ADME, organism-based; settings: in vivo, 4 h
# [16] = Biodistribution in Wistar rat rest of brain at 300 uCi, iv after 240 mins; format: ADME, organism-based; settings: in vivo, 4 h
# Cerebellum [17] = test: Biodistribution in Wistar rat cerebellum at 300 uCi, iv after 5 mins; format: ADME, organism-based; settings: in vivo
# [18] = Biodistribution in Wistar rat fat at 300 uCi, iv after 20 mins; format: ADME, organism-based, Adipose tissue; settings: in vivo
# Harderian gland [19] = test: Biodistribution in Wistar rat harderian glands at 300 uCi, iv after 120 mins; format: ADME, organism-based; settings: in vivo, 2 h
# [20] = Biodistribution in Wistar rat fat at 300 uCi, iv after 120 mins; format: ADME, organism-based, Adipose tissue; settings: in vivo, 2 h
# [21] = Biodistribution in Wistar rat brown fat at 300 uCi, iv after 120 mins; format: ADME, organism-based, Brown adipose tissue; settings: in vivo, 2 h
# Cerebellum [22] = test: Biodistribution in Wistar rat cerebellum at 300 uCi, iv after 240 mins; format: ADME, organism-based; settings: in vivo, 4 h
# Striatum [23] = test: Biodistribution in Wistar rat striatum at 300 uCi, iv after 5 mins; format: ADME, organism-based; settings: in vivo
# Kidney [24] = test: Biodistribution in Wistar rat kidney at 300 uCi, iv after 60 mins; format: ADME, organism-based; settings: in vivo, 1 h
# [25] = Biodistribution in Wistar rat fat at 300 uCi, iv after 60 mins; format: ADME, organism-based, Adipose tissue; settings: in vivo, 1 h
# [26] = Biodistribution in Wistar rat fat at 300 uCi, iv after 240 mins; format: ADME, organism-based, Adipose tissue; settings: in vivo, 4 h
# Cortex [27] = test: Biodistribution in Wistar rat cortex at 300 uCi, iv after 60 mins; format: ADME, organism-based; settings: in vivo, 1 h
# Cerebellum [28] = test: Biodistribution in Wistar rat cerebellum at 300 uCi, iv after 60 mins in presence of nisoxetine; format: ADME, organism-based; settings: in vivo, 1 h
# Heart = test: Biodistribution in Wistar rat heart at 300 uCi, iv after 120 mins; format: ADME, organism-based; settings: in vivo, 2 h
# Harderian gland [29] = test: Biodistribution in Wistar rat harderian glands at 300 uCi, iv after 240 mins; format: ADME, organism-based; settings: in vivo, 4 h
# [30] = Biodistribution in Wistar rat brown fat at 300 uCi, iv after 60 mins; format: ADME, organism-based, Brown adipose tissue; settings: in vivo, 1 h
# Testes [31] = test: Biodistribution in Wistar rat testes at 300 uCi, iv after 60 mins; format: ADME, organism-based, Testis; settings: in vivo, 1 h
# Harderian gland [32] = test: Biodistribution in Wistar rat harderian glands at 300 uCi, iv after 20 mins; format: ADME, organism-based; settings: in vivo
# Thymus [33] = test: Biodistribution in Wistar rat thymus at 300 uCi, iv after 240 mins; format: ADME, organism-based; settings: in vivo, 4 h
# Striatum [34] = test: Biodistribution in Wistar rat striatum at 300 uCi, iv after 60 mins in presence of GBR-12909; format: ADME, organism-based; settings: in vivo, 1 h
# Hippocampus [35] = test: Biodistribution in Wistar rat hippocampus at 300 uCi, iv after 60 mins; format: ADME, organism-based; settings: in vivo, 1 h
# Harderian gland [36] = test: Biodistribution in Wistar rat harderian glands at 300 uCi, iv after 5 mins; format: ADME, organism-based; settings: in vivo
# Cortex [37] = test: Biodistribution in Wistar rat cortex at 300 uCi, iv after 120 mins; format: ADME, organism-based; settings: in vivo, 2 h
# Kidney [38] = test: Biodistribution in Wistar rat kidney at 300 uCi, iv after 20 mins; format: ADME, organism-based; settings: in vivo
# [39] = Biodistribution in Wistar rat fat at 300 uCi, iv after 5 mins; format: ADME, organism-based, Adipose tissue; settings: in vivo
# Lung [40] = test: Biodistribution in Wistar rat lung at 300 uCi, iv after 240 mins; format: ADME, organism-based; settings: in vivo, 4 h
# [41] = Biodistribution in Wistar rat brown fat at 300 uCi, iv after 20 mins; format: ADME, organism-based, Brown adipose tissue; settings: in vivo
# Striatum [42] = test: Biodistribution in Wistar rat striatum at 300 uCi, iv after 60 mins in presence of nisoxetine; format: ADME, organism-based; settings: in vivo, 1 h
# Blood [43] = test: Biodistribution in Wistar rat blood at 300 uCi, iv after 5 mins; format: ADME, organism-based; settings: in vivo
# Liver [44] = test: Biodistribution in Wistar rat liver at 300 uCi, iv after 120 mins; format: ADME, organism-based; settings: in vivo, 2 h
# Hippocampus [45] = test: Biodistribution in Wistar rat hippocampus at 300 uCi, iv after 5 mins; format: ADME, organism-based; settings: in vivo
# [46] = Biodistribution in Wistar rat rest of brain at 300 uCi, iv after 120 mins; format: ADME, organism-based; settings: in vivo, 2 h
# Cortex [47] = test: Biodistribution in Wistar rat cortex at 300 uCi, iv after 60 mins in presence of GBR-12909; format: ADME, organism-based; settings: in vivo, 1 h
# Adrenal [48] = test: Biodistribution in Wistar rat adrenal gland at 300 uCi, iv after 5 mins; format: ADME, organism-based, Adrenal tissue; settings: in vivo
# [49] = Biodistribution in Wistar rat hair and skin at 300 uCi, iv after 240 mins; format: ADME, organism-based; settings: in vivo, 4 h
# Lung [50] = test: Biodistribution in Wistar rat lung at 300 uCi, iv after 60 mins; format: ADME, organism-based; settings: in vivo, 1 h
# Thymus [51] = test: Biodistribution in Wistar rat thymus at 300 uCi, iv after 20 mins; format: ADME, organism-based; settings: in vivo
# [52] = Biodistribution in Wistar rat hair and skin at 300 uCi, iv after 20 mins; format: ADME, organism-based; settings: in vivo
# Pancreas [53] = test: Biodistribution in Wistar rat pancreas at 300 uCi, iv after 240 mins; format: ADME, organism-based; settings: in vivo, 4 h
# Muscle tissue [54] = test: Biodistribution in Wistar rat muscle at 300 uCi, iv after 120 mins; format: ADME, organism-based; settings: in vivo, 2 h
# Thymus [55] = test: Biodistribution in Wistar rat thymus at 300 uCi, iv after 120 mins; format: ADME, organism-based; settings: in vivo, 2 h
# [56] = Biodistribution in Wistar rat rest of brain at 300 uCi, iv after 20 mins; format: ADME, organism-based; settings: in vivo
# [57] = Biodistribution in Wistar rat brown fat at 300 uCi, iv after 5 mins; format: ADME, organism-based, Brown adipose tissue; settings: in vivo
# Kidney [58] = test: Biodistribution in Wistar rat kidney at 300 uCi, iv after 5 mins; format: ADME, organism-based; settings: in vivo
# Hippocampus [59] = test: Biodistribution in Wistar rat hippocampus at 300 uCi, iv after 60 mins in presence of citalopram; format: ADME, organism-based; settings: in vivo, 1 h
compound,measurement,setting,value
CN1C2CCC1C(C(=O)OCC[18F])C(c1ccc(Br)cc1)C2 (configuration not stated),Drug uptake,Adrenal [1],0.35 % ID/g
same,Drug uptake,Adrenal [2],0.17 % ID/g
same,Stability,Plasma,61%
same,Drug uptake,Pancreas [3],0.29 % ID/g
same,remaining at 1 h,[4],> 90%
same,Drug uptake,Testes [5],0.39 % ID/g
same,Drug uptake,Cerebellum [6],0.71 % ID/g
same,Drug uptake,Cortex [7],0.97 % ID/g
same,Drug uptake,[8],0.08 % ID/g
same,Drug uptake,Hippocampus [9],0.42 % ID/g
same,Drug uptake,Pancreas [10],0.54 % ID/g
same,Drug uptake,Striatum [11],3.93 % ID/g
same,Drug uptake,Muscle tissue [12],0.04 % ID/g
same,Drug uptake,Pancreas [13],2.09 % ID/g
same,Drug uptake,Liver [14],3.2 % ID/g
same,Drug uptake,Blood [15],0.025 % ID/g
same,Drug uptake,Spleen,0.12 % ID/g
same,Drug uptake,[16],0.27 % ID/g
same,Drug uptake,Cerebellum [17],1.77 % ID/g
same,Drug uptake,[18],0.48 % ID/g
same,Drug uptake,Harderian gland [19],1.82 % ID/g
same,Drug uptake,[20],0.16 % ID/g
same,Drug uptake,[21],0.21 % ID/g
same,Drug uptake,Cerebellum [22],0.09 % ID/g
same,Drug uptake,Striatum [23],3.23 % ID/g
same,Drug uptake,Kidney [24],3.1 % ID/g
same,Drug uptake,[25],0.27 % ID/g
same,Drug uptake,[26],0.06 % ID/g
same,Drug uptake,Cortex [27],1 % ID/g
same,Drug uptake,Cerebellum [28],0.63 % ID/g
same,Drug uptake,Heart,0.12 % ID/g
same,Drug uptake,Harderian gland [29],0.93 % ID/g
same,Drug uptake,[30],0.39 % ID/g
same,Drug uptake,Testes [31],0.5 % ID/g
same,Drug uptake,Harderian gland [32],2.04 % ID/g
same,Drug uptake,Thymus [33],0.08 % ID/g
same,Drug uptake,Striatum [34],1.51 % ID/g
same,Drug uptake,Hippocampus [35],1.12 % ID/g
same,Drug uptake,Harderian gland [36],1.46 % ID/g
same,Drug uptake,Cortex [37],0.45 % ID/g
same,Drug uptake,Kidney [38],3.51 % ID/g
same,Drug uptake,[39],4.64 % ID/g
same,Drug uptake,Lung [40],0.27 % ID/g
same,Drug uptake,[41],0.78 % ID/g
same,Drug uptake,Striatum [42],4.18 % ID/g
same,Drug uptake,Blood [43],0.16 % ID/g
same,Drug uptake,Liver [44],15.7 % ID/g
same,Drug uptake,Hippocampus [45],2.37 % ID/g
same,Drug uptake,[46],0.59 % ID/g
same,Drug uptake,Cortex [47],0.94 % ID/g
same,Drug uptake,Adrenal [48],3.57 % ID/g
same,Drug uptake,[49],0.08 % ID/g
same,Drug uptake,Lung [50],1.14 % ID/g
same,Drug uptake,Thymus [51],0.82 % ID/g
same,Drug uptake,[52],0.47 % ID/g
same,Drug uptake,Pancreas [53],0.13 % ID/g
same,Drug uptake,Muscle tissue [54],0.09 % ID/g
same,Drug uptake,Thymus [55],0.21 % ID/g
same,Drug uptake,[56],2.06 % ID/g
same,Drug uptake,[57],1.46 % ID/g
same,Drug uptake,Kidney [58],4.64 % ID/g
same,Drug uptake,Hippocampus [59],1.36 % ID/g

# Source: ChEMBL document CHEMBL1148029, “Synthesis and radiopharmacological characterization of 2beta-carbo-2'-[18F]fluoroethoxy-3beta-(4-bromo-phenyl)tropane ([18F]MCL-322) as a PET radiotracer for imaging the dopamine transporter (DAT)” (Bioorg Med Chem, 2007)
